Assay results published in patent US20230026808A1, “COMPOUNDS, COMPOSITIONS, AND METHODS FOR TREATING ISCHEMIA-REPERFUSION INJURY AND/OR LUNG INJURY” (YALE UNIVERSITY, priority 2019, published 2023).
“Also recorded” adds a separate entry of the source. Like-named read-outs stand apart in the source and are kept apart here. Marks after values point to notes of the source that are not given here.

Tests used:
ERK phosphorylation = ERK phosphorylation in mouse neutrophils; format: cell-based
Method: (§1) Mouse bone marrow neutrophils were isolated from long bones. After lysis of red blood cells (RBCs) with ACK buffer (155 mM NH4Cl, 10 mM KHCO3 and 127 μM EDTA), bone marrow cells were separated on a discontinuous Percoll gradient composed of 81%, 62%, and 45% Percoll. Neutrophils were collected at the interphase between 81% and 62% Percoll, washed in HBSS, and used for assays.

p38 phosphorylation = p38 phosphorylation in mouse neutrophils; format: cell-based
Method: as §1

[1] = tested on: lung transplantation-induced injury; assay: Pilot clinical study in paired single lung transplantation recipients; format: in vivo, human
Excerpt: These represent all of the patients who were eligible for single LT and consented for enrollment into the study between Mar. 1, 2018 and Aug. 31, 2018. […] The baseline characteristics, surgical information, medical records during their ICU stay, as well as ventilator parameters, arterial blood gas analysis, and chest X-ray results within 5 days after LT were collected. All of the five donors were enrolled in a voluntary organ donation program and died of accident or disease.
The chest X-ray scores were obtained in the following manner: the heart field was regarded as the center, and the lung field was divided into four quadrants. Non-opacified regions, 0 points; opacified regions limited to 1/4 lung area, 1 point; limited to 2/4 lung area, 2 points; limited to 3/4 lung area, 3 points; in all lung fields, 4 points. Scores were independently collected by a clinician and a radiologist who were blinded for the treatment, and the average was used. If the difference between the two evaluators was greater than 1 point, discussion was conducted to reach a consensus. Hypoxemia index=PaO2/FiO2, measured by arterial blood gas analysis.
In the pilot clinical study, the linear mixed model repeated measures analysis was performed to compare the hypoxemia and X-ray scores over time between two groups accounting for both within-subject correlation and correlation of paired recipients. Time by group interaction was included in the model to examine the difference in trajectory of outcomes between two groups. Linear contrast was used to compare difference at each post-transplant day, and overall mean difference between groups as well. The analysis was conducted with SAS version 9.4 (SAS Inc., Cary, N.C.). The significance was set as p<0.05, two-sided.

[2] = tested on: murine hepatitis virus strain 1 (MHV-1); assay: Pazopanib IV in the MHV-1 mouse model; format: in vivo, A/J mice
Method: The murine hepatitis virus strain 1 (MHV-1) model was adopted for the pharmacology study. All MHV-1-infected A/J mice developed progressive interstitial edema, neutrophil/macrophage infiltrates, and hyaline membranes, leading to the death of all mice. Two studies have been completed to date. In the first one, mice were administered a 3-dose regimen of the study intervention at 6, 21, and 32 hours after virus inoculation. In the second, mice were administered a 2-dose regimen at 24 and 33 hours after inoculation.
A/J mice, 8 to 10 weeks old, were anaesthetized by Ketamine/Xylazine (100 and 10 mg/kg) and were kept under anesthesia during the whole procedure using Ketamine/Xylazine. After being deeply anesthetized (assessed by applying a noxious stimulus, e.g., toe pinch, and observing no reflex response and no change in either the rate or character of respiration), mice received an intranasal inoculation of 5000 PFU MHV-1 in 20 μL Dulbecco's modified Eagle's medium. After the administration, the mice were monitored until their breathing gradually returned to normal. Then the mice were returned to the recovery cage on the heating pad and monitored for their anesthesia status. […] The green fluorescence of BAL was measured by the plate reader. BAL fluorescence intensities from pazopanib-treated mice were normalized to the intensities from vehicle-control-treated mice wherein higher intensity corresponds to greater permeability.
A/J mice, 8-10 weeks old, were anaesthetized by Ketamine/Xylazine (100 and 10 mg/kg) and were kept under anesthesia during the whole procedure using Ketamine/Xylazine. After being deeply anesthetized (assessed by applying a noxious stimulus, e.g., toe pinch, and observing no reflex response and no change in either the rate or character of respiration), mice received an intranasal inoculation of 6000 PFU MHV-1 in 20 μL Dulbecco's modified Eagle's medium. After the administration, the mice were monitored until their breathing gradually returned to normal. Then the mice were returned to the recovery cage on the heating pad and monitored for their anesthesia status. […]

LPS-induced ALI = assay: LPS-induced acute lung injury mouse model; format: in vivo
[3] = Clinical pharmacokinetics of pazopanib; format: in vivo; details: human, IV 20 mg/subject, extrapolated
in vivo = details: monkey, iv; for AUC(0-inf) / Cmax: 10 mg/kg/day
[4] = cited from earlier work; for AUC / Cmax: human
[5] = IV toxicology and toxicokinetic studies in rats; details: for safety margin based on Cmax: vs Cmax 3.4 μg/mL in man (20 mg IV)
[6] = therapeutic modality, intranasally post injury induction
[7] = IV administration 5 mg/subject (N=7)
[8] = oral, reported with bioavailability
[9] = rat, 5 days, IV 20 minute infusion

In the case of `Cc1ccc(Nc2nccc(N(C)c3ccc4c(C)n(C)nc4c3)n2)cc1S(N)(=O)=O` [pazopanib, 5-((4-((2,3-dimethyl-2H-indazol-6-yl)(methyl)amino)pyrimidin-2-yl)amino)-2-methylbenzenesulfonamide], the ERK phosphorylation (ERK phosphorylation) is reported as “did not affect”, the p38 phosphorylation (p38 phosphorylation) is reported as “did not affect” and the “X-ray opacity score, difference treatment vs control group” value ([1]; first day, pazopanib 200 mg oral before surgery) is reported as 0.6. The “X-ray opacity score, difference treatment vs control group” value ([1]; last day, pazopanib 200 mg oral before surgery) was 0.7, the pulmonary edema ([1]; lung transplantation-induced injury) was “significantly reduced pulmonary edema” and the “X-ray score lower than control group, on average” value ([1]; overall mean, pazopanib 200 mg oral before surgery) was 0.5 point. The “projected clinical efficacious dose” value ([2]; assuming 70 kg human) was “approximately 16.8 mg”, the “human equivalent dose of efficacious dose” value ([2]; from 3 mg/kg in mouse) was 0.24 mg/kg and the efficacious dose ([2]; mouse coronavirus-induced lung injury model) was “approximately 3 mg/kg”. The “margin of safety based on AUC values” (2-week rat and monkey studies) was less than 10 fold, the “safety margin based on Cmax” value (female monkeys) was 23 fold and the “safety margin based on Cmax” value (male monkeys) was 25 fold. For the same compound, the “HED for 70 kg human” value (monkey, 2-week study) was 224 mg, the Margin of safety (monkey, 5 days, IV 20 minute infusion, clinical dose 20 mg/day or 0.29 mg/kg) was 33.1X and the t1/2 (monkeys) was “a few hours”. The mortality (LPS-induced ALI; prophylactic, orally prior to injury) was “reduced”, the mortality (LPS-induced ALI; [6]) was “significant reductions; also recorded: reduces mortality” and the perivascular interstitial edema (LPS-induced ALI; [6]) was “significant reductions”. The “AUC(0-∞), assuming dose-linearity” value [3] was 81.6^a μg·h/mL, the “Cmax, assuming dose-linearity” value [3] was 3.4^a μg/mL and the AUC(0-inf) ([3]; in vivo, read-out: AUC(0-∞), assuming dose-linearity) was 81.6 µg·h/mL. For the same compound, the Cmax ([3]; in vivo, read-out: Cmax, assuming dose-linearity) was 3.4 µg/mL, the AUC(0-inf) (in vivo; female) was 167 µg·h/mL and the Cmax (in vivo; female) was 80 µg/mL. The AUC(0-inf) (in vivo; male) was 143 µg·h/mL, the Cmax (in vivo; male) was 85 µg/mL and the NOAEL at 2 weeks (in vivo; NOAEL (no observed adverse effect level), monkeys, 2-week GLP IV infusion (20-minute)) was 10 mg/kg/day. The NOAEL at 5 days (in vivo; NOAEL, 5 days, IV 20 minute infusion) was 30 mg/kg, the NOAEL at 14 days (in vivo; NOAEL, 14 days, IV 20 minute infusion) was 10 mg/kg and the AUC [4, 7] was 20.4 µg·h/mL. For the same compound, the Cmax [4, 7] was 0.848 µg/mL, the AUC [4, 8] was 806 µg·h/mL and the Cmax [4, 8] was 43.9 µg/mL. For the same compound, the “half-life (t1/2)” value ([4]; in man) was 27.5 h, the Margin of safety ([5]; 2-week rat study vs 20 mg clinical starting dose) was 5.6 fold and the “safety margin based on Cmax” value ([5]; female rats) was 16.2 fold. For the same compound, the “safety margin based on Cmax” value ([5]; male rats) was 13.8 fold, the “HED for 70 kg human” value ([5]; rat, 2-week study) was 112 mg and the “HED of NOAEL” value [5, 9] was 8 mg/kg. It also gave an NOAEL [5, 9] of 50 mg/kg, a Margin of safety ([5]; rat, 5 days, IV 20 minute infusion, clinical dose 20 mg/day or 0.29 mg/kg) of 27.6X and a Margin of safety ([5]; rat, 14 days, IV 20 minute infusion, clinical dose 20 mg/day or 0.29 mg/kg) of 5.6X. The t1/2 ([5]; rat, in vivo) was “a few hours”, the “HED of NOAEL” value ([5]; rat, single dose, IV bolus) was 4.8 mg/kg and the Margin of safety ([5]; rat, single dose, IV bolus, clinical dose 20 mg/day or 0.29 mg/kg) was 16.6X.
